# ChEMBL document CHEMBL4699446, “Hydroxy-neo-Clerodanes and 5,10-seco-neo-Clerodanes from Salvia decora” (J Nat Prod, 2020)
# Calls of active or inactive are those of the source. The calls are words filed in the database; no cut-off is given here.
# Tests used:
# [1] = Inhibition of Saccharomyces cerevisiae alpha-glucosidase using pNPG as substrate preincubated for 10 mins followed by substrate addition after 20 mins
# [2] = molecular target: T1, Tyrosine-protein phosphatase non-receptor type 1 (Homo sapiens) (UniProt P18031); experiment: Inhibition of wild type human HIS6-tagged PTP1B (1 to 400 residues) expressed in Escherichia coli Rosetta (DE3) pLysS cells using p-NPP substrate at 0.38 to 1 mM preincubated for 10 mins followed dby substrate addition and measured after 20 mins relative to control; conditions: dose mM 0.38-1, time 30.0 min
# T1 sequence (whole entry): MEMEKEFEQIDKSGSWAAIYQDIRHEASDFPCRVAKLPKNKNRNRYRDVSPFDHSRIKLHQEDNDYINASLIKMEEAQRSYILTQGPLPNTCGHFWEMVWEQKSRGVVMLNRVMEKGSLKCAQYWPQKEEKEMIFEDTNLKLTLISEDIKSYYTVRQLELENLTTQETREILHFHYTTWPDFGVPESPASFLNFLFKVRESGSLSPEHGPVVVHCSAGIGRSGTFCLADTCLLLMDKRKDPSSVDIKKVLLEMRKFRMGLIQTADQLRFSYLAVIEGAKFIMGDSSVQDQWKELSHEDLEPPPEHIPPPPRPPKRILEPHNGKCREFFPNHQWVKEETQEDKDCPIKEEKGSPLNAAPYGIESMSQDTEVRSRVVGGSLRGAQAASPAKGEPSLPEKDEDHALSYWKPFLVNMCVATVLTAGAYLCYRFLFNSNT
# [3] = molecular target: T1, Tyrosine-protein phosphatase non-receptor type 1 (Homo sapiens)
# Description: Binding affinity to wild type human HIS6-tagged PTP1B (1 to 400 residues) expressed in Escherichia coli Rosetta (DE3) pLysS by tryptophan-tyrosine residues based spectrometric method
# [4] = molecular target: T1, Tyrosine-protein phosphatase non-receptor type 1 (Homo sapiens); experiment: Binding affinity to human PTP1B (1 to 405 residues) at 1:2 protein-ligand ratio
IC50 [1] [µM],inhibition [2],Ka [3],Ka [4],Structure (SMILES)
7.5,50%,1.3 10^4/M,–,C[C@H]1[C@H](C)CC[C@]2(C(=O)O)CC[C@]3(C)C(=CC[C@@H]4[C@@]5(C)CC[C@H](O)C(C)(C)[C@@H]5CC[C@]43C)[C@H]12 [URSOLIC ACID]
–,–,–,3.3 10^5/M,CC(C)[C@@H](CC[C@@H](C)[C@H]1CC[C@H]2[C@@H]3[C@H](O)C[C@H]4C[C@@H](NCCCNCCCCNCCCN)CC[C@]4(C)[C@H]3CC[C@]12C)OS(=O)(=O)O
–,Active,–,–,CC(=O)O[C@H]1CC2=C(/C=C\C=C\[C@@]3(C)C[C@H](c4ccoc4)OC(=O)[C@@H]13)C(=O)OC2
